Measurements as given in PMC9243000 (Cell Discovery, 2022).
Positions of bridges follow the written chain, without caps; N, C: chain ends. Chains are numbered I, II in the order given. No end group written: not given here.

Assays:
SARS-CoV-2 Beta variant = settings: 18 h
[1] = system: SARS-CoV-2 (B.1.1.63, D614G); format: cell-based
[2] = system: Omicron variant (B.1.1.529); assay: Post-exposure antiviral assay in hamsters, Omicron; format: in vivo
SARS-CoV-2 Alpha variant = settings: 18 h
SARS-CoV-2 Delta variant = settings: 18 h

## I: GAICHPVFCPRRYKQIGTCGLPGTKCCKKPKK / II: GAICHPVFCPRRYKQIGTCGLPGTKCCKKPK / III: GAICHPVFCPRRYKQIGTCGLPGTKCCKKP / IV: GAICHPVFCPRRYKQIGTCGLPGTKCCKKP (amide I:31-IV:C, I:32-II:C, II:31-III:C; cysteines drawn unpaired) [4H30]
SARS-CoV-2 Beta variant
  IC50: 0.89 µg/mL
[1]
  inhibition of SARS-CoV-2 replication when added at 6 hpi: significantly inhibit
[2]; […], plaque assay, n = 4
  Omicron variant titers in the nasal wash: significantly reduce
[2]; hamster, in vivo
  inhibition of Omicron replication in hamster lungs: more than 20 fold
SARS-CoV-2 Alpha variant
  IC50: 0.75 µg/mL
SARS-CoV-2 Delta variant
  IC50: 0.79 µg/mL
